{
  "source": "patent US10898459B2",
  "about": "“Method of treating chronic kidney disease” (Panion & BF Biotech Inc., priority 2006, dated 2021)",
  "key": {"[1]": {"tested_on": "patients with end stage renal disease (ESRD) on hemodialysis", "assay": "Randomized, double-blind, placebo-controlled, dose-ranging study of ferric citrate on serum phosphate, calcium and Ca x PO4", "type": "in vivo, human", "settings": "for Serum Ca: Linear Regression: N.S.: Not Significant", "experimental": "Ferric citrate is supplied in 500 mg capsules, whereas the placebo will be provided in identical-looking capsules (indistinguishable from those containing the active drug); the placebo capsules will contain sorbitol and colorant to match the powder color of the active capsules. The placebo capsule shells will be identical to the active capsule shells.\nAn non-limiting example of a dosing regimen is provided below. This is not meant to limit the invention as to how an effective amount of ferric citrate is selected, or the form in which it is provided or the frequency of administering the composition per day. The following merely illustrates how ferric citrate and placebo may be administered; e.g., as 500 mg capsules of identical appearance. All patients may receive (in a blinded fashion) 4 capsules with each of three meals, on a daily basis, for 28 days. Patients will be instructed to take the study medication within 10 minutes of finishing their meals (breakfast, lunch, and dinner).\nEach patient's participation in the trial lasts for up to 8 weeks: the screening period (approximately 1-2 weeks), a 1-2 week washout, and 4 weeks of treatment with study medication.\nThe change in serum PO4 concentration at Days 14 and 28 from baseline.\nThe change in serum calcium concentration at Days 14 and 28 from baseline.\nThe change in the Ca′PO4 product at Days 14 and 28 from baseline.\nObjectives: (1) To determine the effect of ferric citrate at doses of 2, 4 and 6 g daily, administered TID (three times a day), for 28 days on serum phosphate (PO4) levels in patients with end stage renal disease (ESRD). (2) To evaluate the safety of ferric citrate at doses of 2, 4, 6 g daily, administered TID, for 28 days in patients with ESRD.\nStudy Design: Randomized, double-blind, placebo-controlled, dose-ranging study to assess the effect of ferric citrate on serum phosphate concentrations in patients with ESRD on hemodialysis. Patients are assessed at Study Days 14 and 28 for effectiveness as measured by serum phosphate concentrations. Patients who received one or more doses of study medication are also assessed for safety.\nStudy Duration: 8 weeks (including the screening period, 2 weeks washout, 4 weeks treatment)\nFerric citrate is administered orally, and is given equally three times a day."}, "[2]": {"tested_on": "patients with end stage renal disease (ESRD)", "settings": "3 g daily, recent pilot study in ESRD patients; cited from earlier work"}, "[3]": {"settings": "2 g/day (N = 31), Day 0 (baseline)"}, "[4]": {"settings": "4 g/day (N = 32), Day 0 (baseline)"}, "[5]": {"settings": "6 g/day (N = 32), Day 0 (baseline)"}, "[6]": {"settings": "6 g/day (N = 32), Day 28, P < 0.05 baseline change vs placebo"}, "[7]": {"settings": "at 0, 2, and 6 gm/day, TID immediately after meals, oral"}},
  "note": "Marks after values point to notes of the source that are not given here.",
  "data": [
    {"substance": "ferric citrate", "values": [
      {"measurement": "Serum [Ca]", "setting": "[1]; [3]", "value": "8.78 ± 0.981", "unit": "mg/dL"},
      {"measurement": "Serum [PO4]", "setting": "[1]; [3]", "value": "7.1 ± 1.23", "unit": "mg/dL"},
      {"measurement": "[Ca] * [PO4]", "setting": "[1]; [3]", "value": "62.9 ± 13.25 (mg/dL)^2"},
      {"measurement": "Serum [Ca]", "setting": "[1]; 2 g/day (N = 31), Day 14", "value": "9.01 ± 1.232", "unit": "mg/dL"},
      {"measurement": "Serum [PO4]", "setting": "[1]; 2 g/day (N = 31), Day 14", "value": "6.7 ± 1.50", "unit": "mg/dL"},
      {"measurement": "[Ca] * [PO4]", "setting": "[1]; 2 g/day (N = 31), Day 14", "value": "60.3 ± 16.50 (mg/dL)^2"},
      {"measurement": "Serum [Ca]", "setting": "[1]; 2 g/day (N = 31), Day 28", "value": "9.00 ± 0.953", "unit": "mg/dL"},
      {"measurement": "Serum [PO4]", "setting": "[1]; 2 g/day (N = 31), Day 28", "value": "6.9 ± 2.22", "unit": "mg/dL"},
      {"measurement": "[Ca] * [PO4]", "setting": "[1]; 2 g/day (N = 31), Day 28", "value": "61.7 ± 21.25 (mg/dL)^2"},
      {"measurement": "Serum [Ca]", "setting": "[1]; [4]", "value": "9.02 ± 0.913", "unit": "mg/dL"},
      {"measurement": "Serum [PO4]", "setting": "[1]; [4]", "value": "7.1 ± 1.27", "unit": "mg/dL"},
      {"measurement": "[Ca] * [PO4]", "setting": "[1]; [4]", "value": "63.5 ± 10.69 (mg/dL)^2"},
      {"measurement": "Serum [Ca]", "setting": "[1]; 4 g/day (N = 32), Day 14", "value": "9.47 ± 0.990", "unit": "mg/dL"},
      {"measurement": "Serum [PO4]", "setting": "[1]; 4 g/day (N = 32), Day 14", "value": "6.4 ± 1.56", "unit": "mg/dL"},
      {"measurement": "[Ca] * [PO4]", "setting": "[1]; 4 g/day (N = 32), Day 14", "value": "59.9 ± 13.89 (mg/dL)^2"},
      {"measurement": "Serum [Ca]", "setting": "[1]; 4 g/day (N = 32), Day 28", "value": "9.29 ± 0.960", "unit": "mg/dL"},
      {"measurement": "Serum [PO4]", "setting": "[1]; 4 g/day (N = 32), Day 28", "value": "6.0 ± 1.33", "unit": "mg/dL"},
      {"measurement": "[Ca] * [PO4]", "setting": "[1]; 4 g/day (N = 32), Day 28", "value": "55.4 ± 13.36 (mg/dL)^2"},
      {"measurement": "Serum [Ca]", "setting": "[1]; [5]", "value": "8.99 ± 0.812", "unit": "mg/dL"},
      {"measurement": "Serum [PO4]", "setting": "[1]; [5]", "value": "7.3 ± 1.33", "unit": "mg/dL"},
      {"measurement": "[Ca] * [PO4]", "setting": "[1]; [5]", "value": "65.8 ± 12.19 (mg/dL)^2"},
      {"measurement": "Serum [Ca]", "setting": "[1]; 6 g/day (N = 32), Day 14", "value": "9.13 ± 0.909", "unit": "mg/dL"},
      {"measurement": "Serum [PO4]", "setting": "[1]; 6 g/day (N = 32), Day 14", "value": "6.3 ± 1.72", "unit": "mg/dL"},
      {"measurement": "[Ca] * [PO4]", "setting": "[1]; 6 g/day (N = 32), Day 14", "value": "57.5 ± 16.27 (mg/dL)^2"},
      {"measurement": "Serum [Ca]", "setting": "[1]; 6 g/day (N = 32), Day 28", "value": "9.26 ± 0.865", "unit": "mg/dL"},
      {"measurement": "Serum [PO4]", "setting": "[1]; [6]", "value": "5.8 ± 1.76", "unit": "mg/dL"},
      {"measurement": "[Ca] * [PO4]", "setting": "[1]; [6]", "value": "54.1 ± 17.68* (mg/dL)^2"},
      {"measurement": "change in Ca*PO4 levels", "setting": "[1]; 6 gm/day dose at both 14 and 28 days", "value": "decreased and were statistically significant"},
      {"measurement": "Serum Ca: Dose Response", "setting": "[1]; Day 0", "value": "No"},
      {"measurement": "Ca × PO4: Linear Regression P", "setting": "[1]; Day 14", "value": "P = 0.0401"},
      {"measurement": "Ca × PO4: Statistical Significant", "setting": "[1]; Day 14", "value": "No"},
      {"measurement": "Serum Ca: Statistical Significant", "setting": "[1]; Day 14", "value": "No"},
      {"measurement": "Serum PO4: Statistical Significant", "setting": "[1]; Day 14", "value": "No"},
      {"measurement": "Serum Ca: Linear Regression", "setting": "[1]; Day 14", "value": "N.S."},
      {"measurement": "Ca × PO4: Dose Response", "setting": "[1]; Day 14, placebo, 2, 4, 6 g/day", "value": "Yes"},
      {"measurement": "Serum Ca: Dose Response", "setting": "[1]; Day 14, placebo, 2, 4, 6 g/day", "value": "No"},
      {"measurement": "Serum PO4: Dose Response", "setting": "[1]; Day 14, placebo, 2, 4, 6 g/day", "value": "No"},
      {"measurement": "Ca × PO4: Linear Regression P", "setting": "[1]; Day 28", "value": "P = 0.0158"},
      {"measurement": "Ca × PO4: Statistical Significant", "setting": "[1]; Day 28", "value": "Yes (6 g/day)"},
      {"measurement": "Serum Ca: Statistical Significant", "setting": "[1]; Day 28", "value": "No"},
      {"measurement": "Serum PO4: Linear Regression P", "setting": "[1]; Day 28", "value": "P = 0.0073"},
      {"measurement": "Serum PO4: Statistical Significant", "setting": "[1]; Day 28", "value": "Yes (6 g/day)"},
      {"measurement": "Serum Ca: Linear Regression", "setting": "[1]; Day 28", "value": "N.S."},
      {"measurement": "Ca × PO4: Dose Response", "setting": "[1]; Day 28, placebo, 2, 4, 6 g/day", "value": "Yes"},
      {"measurement": "Serum Ca: Dose Response", "setting": "[1]; Day 28, placebo, 2, 4, 6 g/day", "value": "No"},
      {"measurement": "Serum PO4: Dose Response", "setting": "[1]; Day 28, placebo, 2, 4, 6 g/day", "value": "Yes"},
      {"measurement": "change in Ca*PO4", "setting": "[1]; [7]", "value": "decrease"},
      {"measurement": "change in serum PO4", "setting": "[1]; [7]", "value": "decrease"},
      {"measurement": "change in serum calcium level", "setting": "[1]; during the 28 days, 2, 4, and 6 gm/day", "value": "No significant change"},
      {"measurement": "ability to lower the serum phosphate levels", "setting": "[1]; patients with ESRD", "value": "demonstrated"},
      {"measurement": "tolerability (GI symptoms)", "setting": "[2]", "value": "mild, but tolerable GI symptoms"}
    ]}
  ]
}
